# Results as given in patent US10639304B2, “Kinase inhibitors” (priority 2013, dated 2020).
# Legend:
# [1] = tested on: leukemic cells derived from ALL, AML, CML and CLL; experiment: Initial analysis of cytotoxicity in leukemic cells; assay type: cell-based; settings: for toxicity to the leukemic cells tested: initial analysis of 12 compounds ALD-1 through ALD-12; for anti-leukemic activity: structure-activity summary
# Protocol: (§1) The cells were seeded at an initial density of 50,000 cells per well in 100 μl of cell culture media constituted with or without drugs at increasing doses ranging from 1 to 10^7 fold. The assays were performed in 96-well cell culture plates which were maintained at 37° C. in 5% CO2 atmosphere for 24 h, 48 h, 72 h and 96 h. At the end of each incubation point; cell viability was measured by Cell Titer-Blue® Assay. The measurements were then expressed as the percentage of viable cells compared to the survival of respective control groups (untreated cells) defined as the maximum cell viability. The data obtained was further analyzed using Prism nonlinear regression software (Graphpad Software) for the curve-fitting and determination of IC50 values.
# [2] = target: T1, Src (Homo sapiens, UniProt P12931); experiment: Src phosphorylation in K562 cells, Western blotting; assay type: cell-based; settings: FIGS. 9 and 10
# T1 construct: reduced the levels of phosphorylated Src in K562 cells; endogenous in cells; host or cells: K562
# T1 sequence (P12931 whole entry): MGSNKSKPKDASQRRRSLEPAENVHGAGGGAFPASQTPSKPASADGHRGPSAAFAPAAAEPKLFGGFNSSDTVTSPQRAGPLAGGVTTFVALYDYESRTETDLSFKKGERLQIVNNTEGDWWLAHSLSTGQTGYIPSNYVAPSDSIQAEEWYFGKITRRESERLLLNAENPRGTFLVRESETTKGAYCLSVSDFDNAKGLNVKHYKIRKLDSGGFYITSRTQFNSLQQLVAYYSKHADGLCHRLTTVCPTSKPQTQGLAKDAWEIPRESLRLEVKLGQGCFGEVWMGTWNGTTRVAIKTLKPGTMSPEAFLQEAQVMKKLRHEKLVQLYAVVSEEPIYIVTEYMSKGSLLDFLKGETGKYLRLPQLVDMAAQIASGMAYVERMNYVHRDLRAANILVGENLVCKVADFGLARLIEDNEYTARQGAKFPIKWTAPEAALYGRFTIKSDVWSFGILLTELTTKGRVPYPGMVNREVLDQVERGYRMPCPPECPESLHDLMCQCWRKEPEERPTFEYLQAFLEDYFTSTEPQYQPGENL
# [3] = tested on: Gleevec resistant K562 cells; experiment: Cytotoxicity in Gleevec resistant K562 cells (Cell Titer-Blue); assay type: cell-based; settings: for IC50: Homo sapiens, K562
# Protocol: Hela (established from epithelioid cervical carcinoma), were purchased from the American Type Culture Collection (ATCC, Manassas, Va.). SN12C and ACHN cells were provided by Dr. Charles Sawyers. […] Normal lymphocyte 9093 was purchased from ATCC. K562 and normal lymphocytes were maintained in RPMI media (Life Technologies) supplemented with 20% fetal bovine serum (FBS). […] All cells were maintained at 37° C. under a humidified atmosphere of 95% air and 5% CO2.
# as §1
# [4] = target: T2, T315I mutant Bcr-Abl (Homo sapiens, UniProt P00519, T315I); experiment: Bcr-Abl phosphorylation in K562 cells, Western blotting; assay type: cell-based; settings: in the presence of Gleevec, FIGS. 5 and 6
# T2 construct: K562 cells that express the T315I mutant Bcr-Abl; BCR (fusion partner, P11274 N-terminal part); endogenous in cells; host or cells: K562 (Gleevec-resistant); the other entry of the earlier key: BCR (P11274, Breakpoint cluster region protein)
# [5] = target: T3, Lyn (Homo sapiens, UniProt P07948); experiment: Lyn phosphorylation in K562 cells, Western blotting; assay type: cell-based; settings: FIG. 11
# T3 construct: K562 cells were plated in 10 cm dishes; endogenous in cells; host or cells: K562
# T3 sequence (P07948 whole entry): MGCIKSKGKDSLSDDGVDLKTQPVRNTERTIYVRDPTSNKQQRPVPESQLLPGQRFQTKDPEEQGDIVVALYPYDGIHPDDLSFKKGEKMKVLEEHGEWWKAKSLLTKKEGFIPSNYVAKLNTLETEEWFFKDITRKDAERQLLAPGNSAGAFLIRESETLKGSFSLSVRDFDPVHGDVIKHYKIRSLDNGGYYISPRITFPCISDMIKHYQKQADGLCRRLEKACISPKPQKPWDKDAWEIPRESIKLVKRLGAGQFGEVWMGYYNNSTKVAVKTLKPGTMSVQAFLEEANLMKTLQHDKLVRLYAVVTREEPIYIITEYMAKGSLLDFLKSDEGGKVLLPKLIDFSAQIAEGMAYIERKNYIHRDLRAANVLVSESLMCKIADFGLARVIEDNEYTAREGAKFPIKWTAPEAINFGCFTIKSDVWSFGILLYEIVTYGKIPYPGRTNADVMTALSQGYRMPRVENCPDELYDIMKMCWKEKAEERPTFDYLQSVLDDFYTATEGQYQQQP
# [6] = target: T4, LCK (Homo sapiens, UniProt P06239); experiment: LCK phosphorylation in K562 cells, Western blotting; assay type: cell-based; settings: FIG. 11
# T4 construct: K562 cells were plated in 10 cm dishes; endogenous in cells; host or cells: K562
# T4 sequence (P06239 whole entry): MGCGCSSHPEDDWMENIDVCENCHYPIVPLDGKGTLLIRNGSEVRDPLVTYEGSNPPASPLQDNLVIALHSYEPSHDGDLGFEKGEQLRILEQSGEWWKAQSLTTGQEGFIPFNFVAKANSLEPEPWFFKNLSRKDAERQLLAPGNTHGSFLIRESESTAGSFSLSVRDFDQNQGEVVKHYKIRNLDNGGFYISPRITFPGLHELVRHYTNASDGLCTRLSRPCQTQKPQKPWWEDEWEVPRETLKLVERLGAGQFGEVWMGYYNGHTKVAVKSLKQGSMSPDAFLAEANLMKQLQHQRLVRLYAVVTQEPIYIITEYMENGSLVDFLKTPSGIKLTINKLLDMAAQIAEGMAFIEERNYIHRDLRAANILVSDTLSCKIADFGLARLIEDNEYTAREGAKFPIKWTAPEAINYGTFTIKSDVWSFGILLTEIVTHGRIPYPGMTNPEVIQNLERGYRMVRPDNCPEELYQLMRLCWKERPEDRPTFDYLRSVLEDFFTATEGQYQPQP
# [7] = target: T5, Yes (Homo sapiens, UniProt P07947); experiment: Yes phosphorylation in K562 cells, Western blotting; assay type: cell-based; settings: FIG. 11
# T5 construct: K562 cells were plated in 10 cm dishes; endogenous in cells; host or cells: K562
# T5 sequence (P07947 whole entry): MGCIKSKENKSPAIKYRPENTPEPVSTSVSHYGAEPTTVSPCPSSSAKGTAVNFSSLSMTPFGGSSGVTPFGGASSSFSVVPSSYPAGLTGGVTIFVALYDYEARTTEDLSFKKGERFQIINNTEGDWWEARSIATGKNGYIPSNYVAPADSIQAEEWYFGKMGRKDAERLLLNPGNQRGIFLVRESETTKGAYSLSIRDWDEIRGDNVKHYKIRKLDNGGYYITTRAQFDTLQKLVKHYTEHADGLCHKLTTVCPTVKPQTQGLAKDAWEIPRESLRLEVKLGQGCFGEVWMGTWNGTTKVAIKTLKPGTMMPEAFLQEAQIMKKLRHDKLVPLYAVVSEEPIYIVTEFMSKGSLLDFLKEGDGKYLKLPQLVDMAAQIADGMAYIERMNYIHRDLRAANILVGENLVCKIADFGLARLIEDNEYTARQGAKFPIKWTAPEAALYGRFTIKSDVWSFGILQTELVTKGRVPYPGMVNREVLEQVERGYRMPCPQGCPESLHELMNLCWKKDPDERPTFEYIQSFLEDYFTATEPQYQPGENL
# [8] = tested on: PARP cleavage in Gleevec-resistant CML cell lines; experiment: PARP cleavage (apoptosis marker), Western blotting; assay type: cell-based; settings: FIG. 4
# [9] = tested on: Crkl; experiment: Crkl phosphorylation in K562 cells, Western blotting; assay type: cell-based; settings: FIG. 8
# [10] = tested on: STAT5; experiment: STAT5 phosphorylation in K562 cells, Western blotting; assay type: cell-based; settings: FIG. 7
# [11] = tested on: BV173-GFP, a Gleevec resistant chronic myeloid leukemic cells; experiment: Preclinical efficacy, BV173-GFP leukemia in NSG-B2m mice; assay type: in vivo; settings: up to 250 mg/kg intraperitoneal for 5 weeks
# Protocol: Two days after leukemia cell injection, the mice received intraperitoneal treatments of DMSO, or ALD-10 in DMSO. Following injection cells, the mice were randomized into two groups (6/group) to receive DMSO, or ALD-10. The mice received up to 250 mg/kg of ALD10 for 5 weeks. […] The median survival for ALD-10 and DMSO treated mice was 42 and 39 days, respectively.
# [12] = tested on: Bcr-Abl; settings: in vitro, more potent than imatinib; cited from earlier work
Compound,toxicity to the leukemic cells tested [1],phosphorylation of Src [2],"cytotoxicity to Gleevec resistant CML (GRCML) ([3]; Gleevec resistant CML, cell line not named)",anti-leukemic activity [1],phosphorylation of Bcr-Abl Kinase [4],phosphorylation of Lyn [5],phosphorylation of Lck [6],phosphorylation of Yes [7],IC50 [3] [µM],PARP cleavage (apoptotic cell death) [8],CrkL phosphorylation [9],STAT5 phosphorylation [10],activity of the mice compared to DMSO treated mice [11],liver tumor mass compared to DMSO treated mice [11],"median survival ([11]; DMSO 39 days, Log-rank P=0.0036, Gehan-Breslow-Wilcoxon P=0.0045) [days]",survival (Kaplan-Meier) ([11]; DMSO treated 40 days) [days],"cytotoxicity (in words) ([3]; Gleevec resistant K562 cells, FIG. 1)",affinity for the ATP binding site on Bcr-Abl relative to imatinib [12]
"COC(=O)c1ccc(NC(=O)CSc2nc3cc4c(cc3cc2C)OCCO4)cc1 [ALD-1, 4-[2-(8-Methyl-2,3-dihydro-[1,4]dioxino[2,3-g]quinolin-7-ylsulfanyl)-acetylamino]-benzoic acid methyl ester]",non-toxic,–,–,–,–,–,–,–,–,–,–,–,–,–,–,–,–,–
"CCc1cc2cc3c(cc2nc1SCC(=O)Nc1ccc(OC)cc1OC)OCCO3 [ALD-4, N-(2,4-Dimethoxy-phenyl)-2-(8-ethyl-2,3-dihydro-[1,4]dioxino[2,3-g]quinolin-7-ylsulfanyl)-acetamide]",toxic,inhibited,highly cytotoxic,anti-leukemic activity,block phosphorylation,–,–,–,–,–,–,–,–,–,–,–,–,–
"CCc1cc2cc3c(cc2nc1SCC(=O)Nc1ccccc1C)OCCO3 [ALD-10, 2-(8-Ethyl-2,3-dihydro-[1,4]dioxino[2,3-g]quinolin-7-ylsulfanyl)-N-o-tolyl-acetamide]",toxic,inhibited,–,anti-leukemic activity,block phosphorylation,significantly inhibited,significantly inhibited,significantly inhibited,0.0746,induction of PARP cleavage,inhibited,inhibited,considerably more active,reduced liver tumor mass,42,48,–,–
"CCc1cc2cc3c(cc2nc1SCC(=O)Nc1ccc(OC)cc1)OCCO3 [ALD-11, 2-(8-Ethyl-2,3-dihydro-[1,4]dioxino[2,3-g]quinolin-7-ylsulfanyl)-N-(4-methoxy-phenyl)-acetamide]",non-toxic,did not affect,–,inactive,–,not,not,–,–,did not reveal PARP cleavage,did not affect,did not affect,–,–,–,–,not cytotoxic,–
"CCc1cc2cc3c(cc2nc1SCC(=O)Nc1ccccc1OC)OCCO3 [ALD-12, 2-(8-ethyl-2,3-dihydro-[1,4]dioxino[2,3-g]quinolin-7-ylsulfanyl)-N-(2-methoxy-phenyl)-acetamide]",toxic,inhibited,–,anti-leukemic activity,block phosphorylation,significantly inhibited,significantly inhibited,significantly inhibited,0.0697,induction of PARP cleavage,inhibited,inhibited,–,–,–,–,–,–
Cc1cn(-c2cc(NC(=O)c3ccc(C)c(Nc4nccc(-c5cccnc5)n4)c3)cc(C(F)(F)F)c2)cn1 [Nilotinib],–,–,–,–,–,–,–,–,–,–,–,–,–,–,–,–,–,up to 50 times
